Measurements as given in PubChem BioAssay (NCI).
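GI50: concentration for 50% inhibition of growth. TGI: total growth inhibition.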

Columns and labels:
Experiment in all cases: NCI tumour cell line growth inhibition, 384-well format
[1] = system: RXF 393 renal
[2] = system: OVCAR-8 ovarian
[3] = system: HOP-92 NSCLC
[4] = system: SK-MEL-28 melanoma
[5] = system: KM12 colon
[6] = system: OVCAR-3 ovarian
[7] = system: HCT-116 colon
[8] = system: MDA-MB-435 melanoma
[9] = system: HOP-62 NSCLC
[10] = system: NCI-H522 lung
[11] = system: MALME-3M melanoma
[12] = system: UACC-62 melanoma
[13] = system: 786-0 renal
[14] = system: RPMI-8226 leukemia
[15] = system: SN12C renal
[16] = system: EKVX NSCLC
[17] = system: CCRF-CEM leukemia
[18] = system: NCI-H460 NSCLC
[19] = system: SR leukemia
[20] = system: MCF7 breast
[21] = system: K-562 leukemia
[22] = system: NCI-H226 lung
[23] = system: MDA-MB-468 breast
[24] = system: M14 melanoma
[25] = system: IGROV1 ovarian
[26] = system: ACHN renal
[27] = system: SK-MEL-2 melanoma
[28] = system: A549 NSCLC
[29] = system: HS 578T breast
[30] = system: SF-295 CNS
[31] = system: NCI-H322M lung
[32] = system: SF-268 CNS
[33] = system: NCI-H23 lung
[34] = system: CAKI-1 renal
[35] = system: MDA-MB-231 breast
[36] = system: LOX IMVI melanoma
[37] = system: HCT-15 colon
[38] = system: SNB-75 CNS
[39] = system: BT-549 breast
[40] = system: UO-31 renal
[41] = system: HCC-2998 colon
[42] = system: TK-10 renal
[43] = system: MOLT-4 leukemia
[44] = system: SF-539 CNS
[45] = system: NCI/ADR-RES ovarian
[46] = system: OVCAR-4 ovarian
[47] = system: OVCAR-5 ovarian

Molecule `CC(C)Nc1cc(-c2c[nH]c(C(=O)N[C@H](CO)c3cccc(Cl)c3)c2)c(Cl)cn1` has a GI50 [1] of 4.14 µM, a TGI [1] of 16.5 µM and a GI50 [2] of 5.72 µM. For the same molecule, the TGI [2] was 19.5 µM, the GI50 [3] was 0.445 µM and the TGI [3] was 2.13 µM. The GI50 [4] was 0.12 µM, the TGI [4] was 0.509 µM and the GI50 [5] was 0.547 µM. It also gave a TGI [5] of 12.8 µM, a GI50 [6] of 4.95 µM and a TGI [6] of 19.6 µM. It also gave a GI50 [7] of 0.231 µM, a TGI [7] of 3.11 µM and a GI50 [8] of 0.314 µM. It also gave a TGI [8] of 13.4 µM, a GI50 [9] of 3.19 µM and a TGI [9] of 19.4 µM. It also gave a GI50 [10] of 1.8 µM, a TGI [10] of 13.2 µM and a GI50 [11] of 0.0197 µM. The TGI [11] was 0.076 µM, the GI50 [12] was 0.0563 µM and the TGI [12] was 0.895 µM. For the same molecule, the GI50 [13] was 3.58 µM, the TGI [13] was 17.1 µM and the GI50 [14] was 0.366 µM. For the same molecule, the TGI [14] was 1.88 µM, the GI50 [15] was 6.15 µM and the TGI [15] was 21.4 µM. The GI50 [16] was 3.46 µM, the TGI [16] was 17.3 µM and the GI50 [17] was 2.89 µM. It also gave a TGI [17] of 12.5 µM, a GI50 [18] of 0.758 µM and a TGI [18] of 13.6 µM. The GI50 [19] was 1.01 µM, the TGI [19] was 2.21 µM and the GI50 [20] was 3.72 µM. It also gave a TGI [20] of 15.9 µM, a GI50 [21] of 1.45 µM and a TGI [21] of 13.4 µM. For the same molecule, the GI50 [22] was 1.34 µM, the TGI [22] was 16.6 µM and the GI50 [23] was 6.13 µM. It also gave a TGI [23] of 16.1 µM, a GI50 [24] of 0.0842 µM and a TGI [24] of 0.328 µM. The GI50 [25] was 0.496 µM, the TGI [25] was 7.2 µM and the GI50 [26] was 2.95 µM. For the same molecule, the TGI [26] was 16.3 µM, the GI50 [27] was 0.186 µM and the TGI [27] was 0.467 µM. The GI50 [28] was 0.641 µM, the TGI [28] was 13.4 µM and the GI50 [29] was 10.5 µM. The TGI [29] was 22.3 µM, the GI50 [30] was 7.68 µM and the TGI [30] was 20.2 µM. It also gave a GI50 [31] of 2.88 µM, a TGI [31] of 19.4 µM and a GI50 [32] of 11 µM. The TGI [32] was 23 µM, the GI50 [33] was 0.132 µM and the TGI [33] was 4.12 µM. For the same molecule, the GI50 [34] was 1.04 µM, the TGI [34] was 16.5 µM and the GI50 [35] was 1.37 µM. For the same molecule, the TGI [35] was 17.1 µM, the GI50 [36] was 0.184 µM and the TGI [36] was 0.883 µM. For the same molecule, the GI50 [37] was 4.5 µM, the TGI [37] was 17.9 µM and the GI50 [38] was 13.4 µM. For the same molecule, the TGI [38] was 26.2 µM, the GI50 [39] was 3.37 µM and the TGI [39] was 15.4 µM. It also gave a GI50 [40] of 3.23 µM, a TGI [40] of 16.8 µM and a GI50 [41] of 0.0896 µM. For the same molecule, the TGI [41] was 0.309 µM, the GI50 [42] was 2.6 µM and the TGI [42] was 17.3 µM. The GI50 [43] was 1.66 µM, the TGI [43] was 6.58 µM and the GI50 [44] was 4.36 µM. The TGI [44] was 16.2 µM, the GI50 [45] was 9.98 µM and the TGI [45] was 22.2 µM. For the same molecule, the GI50 [46] was 11.6 µM, the TGI [46] was 24 µM and the GI50 [47] was 0.567 µM. For the same molecule, the TGI [47] was 16.2 µM.

In the case of `CC[C@H](Nc1ncnc2nc[nH]c12)c1nc2cccc(F)c2c(=O)n1-c1ccccc1`, the GI50 [1] is reported as 1.4 µM, the TGI [1] is reported as 9.61 µM and the GI50 [2] is reported as 50.3 µM. For the same molecule, the TGI [2] was greater than 100 µM, the GI50 [3] was 12.2 µM and the TGI [3] was 98.5 µM. For the same molecule, the GI50 [4] was 27.5 µM, the TGI [4] was greater than 100 µM and the GI50 [5] was 24.2 µM. For the same molecule, the TGI [5] was greater than 100 µM, the GI50 [6] was 8.68 µM and the TGI [6] was greater than 73.4 µM. The GI50 [7] was 39.9 µM, the TGI [7] was greater than 100 µM and the GI50 [8] was 25.6 µM. The TGI [8] was 57.1 µM, the GI50 [9] was greater than 59.5 µM and the TGI [9] was greater than 100 µM. It also gave a GI50 [10] of 26.1 µM, a TGI [10] greater than 100 µM and a GI50 [11] of 20.8 µM. For the same molecule, the TGI [11] was greater than 89.1 µM, the GI50 [12] was 19.4 µM and the TGI [12] was greater than 100 µM. For the same molecule, the GI50 [13] was 10.6 µM, the TGI [13] was greater than 100 µM and the GI50 [14] was 16.7 µM. It also gave a TGI [14] of 36.5 µM, a GI50 [15] of 16.6 µM and a TGI [15] greater than 100 µM. The GI50 [16] was 22.4 µM, the TGI [16] was greater than 84.8 µM and the GI50 [17] was 5.93 µM. The TGI [17] was 25.8 µM, the GI50 [18] was 38 µM and the TGI [18] was greater than 100 µM. It also gave a GI50 [19] of 16.2 µM, a TGI [19] of 32.6 µM and a GI50 [20] of 7.96 µM. The TGI [20] was 69.5 µM, the GI50 [21] was 24 µM and the TGI [21] was 82.9 µM. For the same molecule, the GI50 [22] was 37 µM, the TGI [22] was greater than 100 µM and the GI50 [23] was 4.58 µM. It also gave a TGI [23] of 15.9 µM, a GI50 [24] greater than 69 µM and a TGI [24] greater than 100 µM. The GI50 [25] was 4.31 µM, the TGI [25] was 14.9 µM and the GI50 [26] was 13.2 µM. The TGI [26] was greater than 100 µM, the GI50 [27] was 24 µM and the TGI [27] was 70.8 µM. For the same molecule, the GI50 [28] was 32 µM, the TGI [28] was greater than 100 µM and the GI50 [29] was 12.5 µM. The TGI [29] was 50.3 µM, the GI50 [30] was 23.1 µM and the TGI [30] was greater than 76.3 µM. The GI50 [31] was 34.7 µM, the TGI [31] was greater than 100 µM and the GI50 [32] was 25.6 µM. It also gave a TGI [32] greater than 100 µM, a GI50 [33] of 38.2 µM and a TGI [33] greater than 100 µM. It also gave a GI50 [34] of 7.37 µM, a TGI [34] greater than 67.4 µM and a GI50 [35] of 73.6 µM. It also gave a TGI [35] greater than 100 µM, a GI50 [36] of 43.2 µM and a TGI [36] greater than 100 µM. The GI50 [37] was 30.1 µM, the TGI [37] was greater than 100 µM and the GI50 [38] was 0.783 µM. The TGI [38] was 6.15 µM, the GI50 [39] was 4.22 µM and the TGI [39] was 48.1 µM. It also gave a GI50 [40] of 5.12 µM, a GI50 [41] of 36.7 µM and a TGI [41] greater than 93.5 µM. The GI50 [42] was greater than 38.3 µM, the TGI [42] was greater than 94.5 µM and the GI50 [43] was 10 µM. The TGI [43] was 22.1 µM, the GI50 [44] was 33.2 µM and the TGI [44] was greater than 100 µM. It also gave a GI50 [45] of 54.7 µM, a TGI [45] greater than 100 µM and a GI50 [46] of 64.6 µM. For the same molecule, the TGI [46] was greater than 100 µM, the GI50 [47] was greater than 57.4 µM and the TGI [47] was greater than 100 µM.
